According to patent US8883782B2, “Spiro-tetracyclic ring compounds as beta-secretase modulators and methods of use” (Amgen Inc., priority 2010, dated 2014):
Like-named read-outs stand apart in the source and are kept apart here.

Legend:
[1] = target: Beta Secretase enzyme (BACE) (Homo sapiens, UniProt P56817); test: In vitro enzymatic BACE FRET (fluorescence resonance energy transfer) assay; assay type: biochemical; conditions: average IC50, enzyme assay; read-out: BACE 1 FRET assay
In short: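 Cleavage of a 50 nM fluorophore/quencher peptide FRET substrate by BACE for 1 h in 0.05 M acetate pH 4.2, 10% DMSO, 100 uM genapol. Reaction stopped with Tris to neutral pH before fluorescence reading.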

[2] = tested on: Aβ40 in conditioned medium of cells stably expressing Amyloid Precursor Protein (APP); test: In vitro BACE cell-based assay (Aβ40 in conditioned medium, sandwich ELISA); conditions: Homo sapiens, read-out: HEK cell assay
In short: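 Quantification relied on pAb40/6E10 sandwich ELISA with Europium fluorescence counts, and IC50 was fitted versus concentration.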

[3] = HEK293, average IC50, HEK cells

Beta Secretase enzyme (BACE), sequence (P56817 46-501, species assumed): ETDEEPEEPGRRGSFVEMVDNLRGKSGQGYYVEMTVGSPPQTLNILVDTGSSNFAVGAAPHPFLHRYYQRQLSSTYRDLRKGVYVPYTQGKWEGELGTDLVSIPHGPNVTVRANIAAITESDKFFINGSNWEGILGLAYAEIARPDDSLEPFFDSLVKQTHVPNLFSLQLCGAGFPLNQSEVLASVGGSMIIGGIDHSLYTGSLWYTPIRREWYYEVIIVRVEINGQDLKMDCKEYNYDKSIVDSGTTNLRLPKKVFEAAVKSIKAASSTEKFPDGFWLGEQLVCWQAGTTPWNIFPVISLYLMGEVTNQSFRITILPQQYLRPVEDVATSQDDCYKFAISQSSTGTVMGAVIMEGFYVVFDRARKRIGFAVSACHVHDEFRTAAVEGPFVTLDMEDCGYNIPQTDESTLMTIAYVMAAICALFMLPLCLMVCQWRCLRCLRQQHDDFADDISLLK

| SMILES | IC50 [1] | IC50 [2, 3] | IC50 ([2]; HEK293, average IC50) |
| --- | --- | --- | --- |
| CC1(COc2ccc3c(c2)[C@@]2(COC(N)=N2)c2cc(C4=CCOCC4)cc(F)c2O3)COC1 [Example 438, (4S)-2′-(3,6-dihydro-2H-pyran-4-yl)-4′-fluoro-7′-((3-methyl-3-oxetanyl)methoxy)spiro[1,3-oxazole-4,9′-xanthen]-2-amine] | 9 nM | 34.6 nM | – |
| COc1cc(F)c2c(c1)[C@]1(COC(N)=N1)c1cc(-c3cncc(C#CC(C)(C)OC)c3)ccc1O2 [Example 823, (4S)-4′-fluoro-2′-methoxy-7′-(5-(3-methoxy-3-methyl-1-butyn-1-yl)-3-pyridinyl)spiro[1,3-oxazole-4,9′-xanthen]-2-amine] | 101 nM | – | 4300 nM |
| CC#Cc1cncc(-c2ccc3c(c2)[C@@]2(COC(N)=N2)c2cc(-c4ccc(C)nc4)nc(F)c2O3)c1 [Example 741, (5S)-1-fluoro-3-(6-methyl-3-pyridinyl)-7-(5-(1-propyn-1-yl)-3-pyridinyl)spiro[chromeno[2,3-c]pyridine-5,4′-[1,3]oxazol]-2′-amine] | 0.4 nM | – | 4 nM |
| CC(C)(C)COc1ccc2c(c1)[C@]1(COC(N)=N1)c1cc(-c3cncnc3)c(F)cc1O2 [Example 512, (4S)-7′-(2,2-dimethylpropoxy)-3′-fluoro-2′-(5-pyrimidinyl)spiro[1,3-oxazole-4,9′-xanthen]-2-amine] | 103 nM | 378 nM | – |
| CC1(C)CC(c2cnc3c(c2)[C@]2(CSC(N)=N2)c2cc(-c4cncnc4)ccc2O3)=CCO1 [Example 669, (5S)-3-(2,2-dimethyl-3,6-dihydro-2H-pyran-4-yl)-7-(5-pyrimidinyl)spiro[chromeno[2,3-b]pyridine-5,4′-[1,3]thiazol]-2′-amine] | 0.8 nM | 10 nM | – |
| CC1(COc2cc3c(cc2F)Oc2ccc(-c4ccnc(Cl)c4)cc2[C@@]32COC(N)=N2)COC1 [Example 325, (4S)-7′-(2-chloro-4-pyridinyl)-3′-fluoro-2′-((3-methyl-3-oxetanyl)methoxy)spiro[1,3-oxazole-4,9′-xanthen]-2-amine] | 50.2 nM | – | 255 nM |

Other lines, results leading:

| IC50 [1] | IC50 [2, 3] | IC50 ([2]; HEK293, average IC50) | SMILES |
| --- | --- | --- | --- |
| 19.9 nM | 540 nM | – | CN(C)c1cc2c(cn1)Oc1ccc(-c3cccnc3)cc1C21CSC(N)=N1 [Example 889, (5R)-N~3~,N~3~-dimethyl-7-(3-pyridinyl)spiro[chromeno[2,3-c]pyridine-5,4′-[1,3]thiazole]-2′,3-diamine, (5S)-N~3~,N~3~-dimethyl-7-(3-pyridinyl)spiro[chromeno[2,3-c]pyridine-5,4′-[1,3]thiazole]-2′,3-diamine] |
| 1 nM | – | 23 nM | NC1=N[C@@]2(CS1)c1cc(-c3cccnc3F)ccc1Oc1ncc(-c3ccnc(F)c3)cc12 [Example 767, (5S)-7-(2-fluoro-3-pyridinyl)-3-(2-fluoro-4-pyridinyl)spiro[chromeno[2,3-b]pyridine-5,4′-[1,3]thiazol]-2′-amine] |
| 1 nM | 5 nM | – | Cc1cc(-c2cc3c(cn2)Oc2ccc(-c4cccnc4F)cc2[C@@]32CSC(N)=N2)ccn1 [Example 934, (5S)-7-(2-fluoro-3-pyridinyl)-3-(2-methyl-4-pyridinyl)spiro[chromeno[2,3-c]pyridine-5,4′-[1,3]thiazol]-2′-amine] |
| 2.9 nM | 107 nM | – | NC1=N[C@@]2(CO1)c1cc(-c3cccnc3F)ccc1Oc1cnc(C3CCCCC3)cc12 [Example 388, (5S)-3-cyclohexyl-7-(2-fluoro-3-pyridinyl)spiro[chromeno[2,3-c]pyridine-5,4′-[1,3]oxazol]-2′-amine] |
| 21.6 nM | 347 nM | – | NC1=N[C@@]2(CS1)c1cc(-c3cccnc3F)ccc1Oc1cnc([C@@H]3CCCOC3)cc12 [Example 931, (5S)-7-(2-fluoro-3-pyridinyl)-3-((3S)-tetrahydro-2H-pyran-3-yl)spiro[chromeno[2,3-c]pyridine-5,4′-[1,3]thiazol]-2′-amine] |
